Assay results: US4206215A, “Antimicrobial bis-[4-(substituted-amino)-1-pyridinium]alkanes” (Sterling Drug Inc., priority 1977, dated 1980)
Where two headings read alike, the source gives them in different places.

What was measured:
K. pneum. 39645 = assay: In vitro antibacterial activity, MIC (modified Autotiter method); type: cell-based, Klebsiella pneumoniae; details: Klebsiella pneumoniae, 20 h, 18-20 hours at 37° C.; read-out: MIC K. pneum. 39645
Method in brief: (§1)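 Broth microdilution on an automated Autotiter: compounds tested as solutions, starting stock 1,000 mcg./ml., twofold serial dilution in water, final 500 to 0.06 mcg./ml. in inoculated semisynthetic (glucose) medium.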

E. Coli ATCC 8739 = assay: Effect of serum on bacteriostatic activity (serial tube dilution test); type: cell-based, Escherichia coli; details: for Fold Increase in MIC E. Coli ATCC 8739: 40% vs 0% horse serum; for MIC: Escherichia coli, ATCC8739
Method in brief: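 Bacteriostatic potency against Escherichia coli ATCC 8739 was measured with the standard serial tube dilution test. Minimum inhibitory concentrations were determined in pairs, with the test medium either lacking serum or containing 40% horse serum heat-inactivated at 56° C. for 30 min. Serum impact was reported as the fold increase in MIC (mcg./ml.).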

[1] = tested on: Herpes simplex type 2 virus; assay: Virucidal activity in vitro (plaque inhibition test); type: cell-based; details: 2 mg. of test compound on growth medium
Method: Virucidal activity of representative examples against Herpes simplex type 2 virus was determined in vitro employing a procedure similar to the plaque inhibition test for detection of specific inhibitors of DNA-containing viruses published by E. C. Herrmann, Jr., Proc. Soc. Exp. Biol. Med. 107, 142 (1961) wherein 2 mg. of the test compound was placed on the surface of the growth medium.

E. coli AB1932-1 = assay: In vitro antibacterial activity, MIC (modified Autotiter method); type: cell-based, Escherichia coli; details: 18-20 hours at 37° C.; for MIC: Escherichia coli, AB19321, 20 h, read-out: MIC E. coli AB1932-1
Method in brief: as §1

E. coli 100/B22 = assay: as above; type: cell-based, Escherichia coli; details: for MIC E. coli 100/B22: 18-20 hours at 37° C.; for MIC: Escherichia coli, 100/B22, 20 h, read-out: MIC E. coli 100/B22, 18-20 hours at 37° C.
Method in brief: as §1

Ps. aerug. MGH-2 = assay: as above; type: cell-based, Pseudomonas aeruginosa; details: Pseudomonas aeruginosa, 20 h, 18-20 hours at 37° C.; read-out: MIC Ps. aerug. MGH-2
Method in brief: as §1

S. pyogen. C203 = assay: as above; type: cell-based, Streptococcus pyogenes; details: 18-20 hours at 37° C.; for MIC: Streptococcus pyogenes, 20 h, read-out: MIC S. pyogen. C203
Method in brief: as §1

[2] = 40% heat inactivated horse serum, read-out: MIC E. Coli ATCC 8739 40% Serum
[3] = read-out: MIC E. Coli ATCC 8739 0% Serum

Compound	MIC (K. pneum. 39645)	Fold Increase in MIC E. Coli ATCC 8739 (E. Coli ATCC 8739)	MIC (E. Coli ATCC 8739; [2])	MIC (E. Coli ATCC 8739; [3])	Virucidal activity against Herpes simplex type 2 virus [1]	MIC E. coli AB1932-1 (E. coli AB1932-1)	MIC E. coli 100/B22 (E. coli 100/B22)	MIC (Ps. aerug. MGH-2)	MIC S. pyogen. C203 (S. pyogen. C203)	MIC (E. coli AB1932-1)	MIC (E. coli 100/B22)	MIC (S. pyogen. C203)
CCCCCCCNc1cc[n+](CCCCCCCCCCCC[n+]2ccc(NCCCCCCC)cc2)cc1 [Example 3, 1,12-bis-[4-(heptylamino)-1-pyridinium]dodecane dibromide]	3.13 µg/mL	32 fold	25 µg/mL	0.78 µg/mL	active	6.25 µg/mL	3.13 µg/mL	6.25 µg/mL	0.39 µg/mL			
CCCCCCCNc1cc[n+](CCCCCCCCC[n+]2ccc(NCCCCCCC)cc2)cc1 [Example 24, 1,9-bis-[4-(heptylamino)-1-pyridinium]nonane dibromide]	1.95 µg/mL	32 fold	7.8 µg/mL	0.25 µg/mL	active			62.5 µg/mL		1 µg/mL	1.95 µg/mL	0.5 µg/mL
CCCCC(CC)CNc1cc[n+](CCCCCCCCCC[n+]2ccc(NCC(CC)CCCC)cc2)cc1 (stereo not drawn) [Example 58, 1,10-bis-[4-(2-ethylhexylamino)-1-pyridinium]decane dibromide]	3 µg/mL	32 fold	15.6 µg/mL	0.5 µg/mL	active	0.37 µg/mL		48.4 µg/mL			0.76 µg/mL	1.95 µg/mL
CCCCCCCCNc1cc[n+](CCCCCCCC[n+]2ccc(NCCCCCCCC)cc2)cc1 [Example 11, 1,8-bis-[4-(octylamino)-1-pyridinium]octane dibromide]	1.95 µg/mL	64 fold	31.2 µg/mL	0.5 µg/mL	active		1.95 µg/mL	15.6 µg/mL		1 µg/mL		1 µg/mL
CCCCCCNc1cc[n+](CCCCCCCCCCCCCC[n+]2ccc(NCCCCCC)cc2)cc1 [Example 5C, 1,14-bis-[4-(hexylamino)-1-pyridinium]tetradecane dibromide]	0.76 µg/mL	32 fold	25 µg/mL	0.78 µg/mL	active			6 µg/mL		0.76 µg/mL	0.76 µg/mL	1 µg/mL
